Read-outs that look alike come from different tables or passages of the source.
What was measured:
EGFR Del19/T790M/C797S = EGFR Del19/T790M/C797S (Homo sapiens, UniProt P00533, C797S/DEL746-750/T790M); experiment: Biochemical EGFR kinase inhibition assay (Lance Ultra TR-FRET), triple mutant del19/T790M/C797S
Protocol: (§1) Biochemical EGFR kinase assays were conducted using Lance Ultra time-resolved fluorescence resonance energy transfer (TR-FRET) technology from Perkin-Elmer. Compounds of the invention were initially diluted to 20 mM in 100% DMSO for storage and made into kinase buffer solution to create a compound concentration ranging from 0.003 μM and 10 μM.
(§2) Each kinase reactions were incubated at room temperature for 1 hour and then stopped by the addition of 4 μL of stop solution (10 mM EDTA). The specific Europium-labeled-anti-phosphopeptide antibody (PerkinElmer, AD0069) diluted in LANCE detection buffer was then added to a final concentration of 2 nM. After 60 minutes incubation at room temperature the LANCE signal was measured on an EnVision Multilabel Reader (Perkin-Elmer). Excitation wavelength was set at 320 nm and emission monitored at 615 nm (donor) and 665 nm (acceptor). The IC50 values were determined using GraphPad prism software (GraphPad Software, Inc., San Diego, CA, USA).

EGFR L858R/T790M/C797S = EGFR L858R/T790M/C797S (Homo sapiens, UniProt P00533, C797S/L858R/T790M); experiment: Biochemical EGFR kinase inhibition assay (Lance Ultra TR-FRET), triple mutant L858R/T790M/C797S
Protocol: as §1, §2

EGFR Del19/C797S = EGFR Del19/C797S (Homo sapiens, UniProt P00533, C797S/DEL746-750); experiment: Biochemical EGFR kinase inhibition assay (Lance Ultra TR-FRET), double mutant del19/C797S
Protocol: as §1, §2

EGFR L858R/C797S = EGFR L858R/C797S (Homo sapiens, UniProt P00533, C797S/L858R); experiment: Biochemical EGFR kinase inhibition assay (Lance Ultra TR-FRET), double mutant L858R/C797S
Protocol: as §1, §2

EGFR wildtype (WT) = EGFR wildtype (WT) (Homo sapiens, UniProt P00533); experiment: Biochemical EGFR kinase inhibition assay (Lance Ultra TR-FRET), wildtype
Protocol: as §1, §2

[1] = IC50 Del19/T790M/C797S (nM), 100 μM ATP
[2] = Km ATP, read-out: IC50 Del19/T790M/C797S (nM) Km ATP
[3] = IC50 L858R/T790M/C797S (nM), 100 μM ATP
[4] = Km ATP, read-out: IC50 L858R/T790M/C797S (nM) Km ATP
[5] = IC50 Del19/C797S (nM), 100 μM ATP
[6] = Km ATP, read-out: IC50 Del19/C797S (nM) Km ATP
[7] = IC50 L858R/C797S (nM), 100 μM ATP
[8] = Km ATP, read-out: IC50 L858R/C797S (nM) Km ATP
[9] = Km ATP, read-out: IC50 WT (nM) Km ATP
[10] = ATP at Km, read-out: IC50 Del19/T790M/C797S (nM), Km ATP
[11] = ATP at Km, read-out: IC50 L858R/T790M/C797S (nM), Km ATP
[12] = ATP at Km, read-out: IC50 Del19/C797S (nM), Km ATP
[13] = ATP at Km, read-out: IC50 L858R/C797S (nM), Km ATP
[14] = ATP at Km, read-out: IC50 WT (nM), Km ATP

Sequence of EGFR L858R/T790M/C797S (P00533 25-1210 T790M/C797S/L858R): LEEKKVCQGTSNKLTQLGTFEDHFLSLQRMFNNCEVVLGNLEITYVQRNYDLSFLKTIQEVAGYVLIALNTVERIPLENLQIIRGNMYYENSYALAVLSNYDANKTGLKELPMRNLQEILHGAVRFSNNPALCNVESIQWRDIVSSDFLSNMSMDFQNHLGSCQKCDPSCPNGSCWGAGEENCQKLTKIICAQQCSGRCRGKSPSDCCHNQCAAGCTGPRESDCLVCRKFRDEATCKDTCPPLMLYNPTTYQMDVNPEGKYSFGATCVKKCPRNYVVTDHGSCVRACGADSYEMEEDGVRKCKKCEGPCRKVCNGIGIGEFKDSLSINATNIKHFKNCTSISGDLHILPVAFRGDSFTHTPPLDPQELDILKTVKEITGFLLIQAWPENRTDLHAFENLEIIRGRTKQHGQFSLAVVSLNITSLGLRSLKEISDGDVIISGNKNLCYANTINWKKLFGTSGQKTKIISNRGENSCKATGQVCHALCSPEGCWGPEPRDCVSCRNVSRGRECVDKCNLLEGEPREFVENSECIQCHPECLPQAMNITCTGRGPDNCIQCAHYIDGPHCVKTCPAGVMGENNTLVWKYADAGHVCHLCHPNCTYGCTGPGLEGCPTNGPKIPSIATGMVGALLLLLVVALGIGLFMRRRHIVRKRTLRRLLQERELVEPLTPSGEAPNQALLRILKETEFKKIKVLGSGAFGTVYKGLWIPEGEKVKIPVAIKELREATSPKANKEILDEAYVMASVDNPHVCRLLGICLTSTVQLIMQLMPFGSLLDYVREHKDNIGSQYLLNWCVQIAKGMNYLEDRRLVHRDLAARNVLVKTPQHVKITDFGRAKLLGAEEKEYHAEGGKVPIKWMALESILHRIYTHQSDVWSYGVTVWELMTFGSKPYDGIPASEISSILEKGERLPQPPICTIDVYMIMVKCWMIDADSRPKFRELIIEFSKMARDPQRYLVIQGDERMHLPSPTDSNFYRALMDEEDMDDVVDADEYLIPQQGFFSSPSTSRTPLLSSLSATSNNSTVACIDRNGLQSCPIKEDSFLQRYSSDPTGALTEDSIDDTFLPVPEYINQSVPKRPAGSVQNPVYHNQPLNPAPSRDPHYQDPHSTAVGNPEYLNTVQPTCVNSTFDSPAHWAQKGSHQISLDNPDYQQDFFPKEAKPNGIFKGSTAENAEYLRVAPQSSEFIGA
Sequence of EGFR wildtype (WT) (P00533 25-1210): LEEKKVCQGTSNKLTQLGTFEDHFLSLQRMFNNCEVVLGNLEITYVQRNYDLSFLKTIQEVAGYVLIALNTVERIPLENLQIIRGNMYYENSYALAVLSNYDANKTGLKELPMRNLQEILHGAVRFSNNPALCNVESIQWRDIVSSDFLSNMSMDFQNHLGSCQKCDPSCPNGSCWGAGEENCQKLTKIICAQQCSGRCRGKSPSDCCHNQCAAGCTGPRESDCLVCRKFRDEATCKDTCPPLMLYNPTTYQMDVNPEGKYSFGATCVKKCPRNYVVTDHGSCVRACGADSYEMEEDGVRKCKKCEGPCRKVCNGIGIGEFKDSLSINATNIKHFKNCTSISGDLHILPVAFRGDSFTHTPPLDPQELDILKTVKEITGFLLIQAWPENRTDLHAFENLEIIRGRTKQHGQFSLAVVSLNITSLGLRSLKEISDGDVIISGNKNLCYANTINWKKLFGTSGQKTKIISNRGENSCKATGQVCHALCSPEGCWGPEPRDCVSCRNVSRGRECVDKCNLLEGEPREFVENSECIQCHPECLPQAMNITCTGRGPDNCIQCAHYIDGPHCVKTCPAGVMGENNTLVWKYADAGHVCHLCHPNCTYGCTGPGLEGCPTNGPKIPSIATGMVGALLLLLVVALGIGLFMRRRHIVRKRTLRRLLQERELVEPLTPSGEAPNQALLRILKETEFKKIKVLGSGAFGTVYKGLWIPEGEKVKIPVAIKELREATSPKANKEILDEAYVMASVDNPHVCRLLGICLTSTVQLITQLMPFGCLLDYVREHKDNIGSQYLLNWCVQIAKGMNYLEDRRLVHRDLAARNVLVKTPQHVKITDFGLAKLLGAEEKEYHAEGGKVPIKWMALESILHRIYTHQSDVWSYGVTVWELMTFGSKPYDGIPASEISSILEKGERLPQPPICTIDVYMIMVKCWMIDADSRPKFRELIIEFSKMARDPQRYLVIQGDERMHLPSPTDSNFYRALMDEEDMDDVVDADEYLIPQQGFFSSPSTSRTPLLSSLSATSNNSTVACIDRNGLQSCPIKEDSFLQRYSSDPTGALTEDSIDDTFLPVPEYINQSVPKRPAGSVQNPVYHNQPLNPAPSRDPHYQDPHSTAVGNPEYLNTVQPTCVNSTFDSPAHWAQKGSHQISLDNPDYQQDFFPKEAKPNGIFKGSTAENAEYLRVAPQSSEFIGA
Sequence of EGFR Del19/T790M/C797S (P00533 with tags, fused parts or gaps DEL746-750/T790M/C797S): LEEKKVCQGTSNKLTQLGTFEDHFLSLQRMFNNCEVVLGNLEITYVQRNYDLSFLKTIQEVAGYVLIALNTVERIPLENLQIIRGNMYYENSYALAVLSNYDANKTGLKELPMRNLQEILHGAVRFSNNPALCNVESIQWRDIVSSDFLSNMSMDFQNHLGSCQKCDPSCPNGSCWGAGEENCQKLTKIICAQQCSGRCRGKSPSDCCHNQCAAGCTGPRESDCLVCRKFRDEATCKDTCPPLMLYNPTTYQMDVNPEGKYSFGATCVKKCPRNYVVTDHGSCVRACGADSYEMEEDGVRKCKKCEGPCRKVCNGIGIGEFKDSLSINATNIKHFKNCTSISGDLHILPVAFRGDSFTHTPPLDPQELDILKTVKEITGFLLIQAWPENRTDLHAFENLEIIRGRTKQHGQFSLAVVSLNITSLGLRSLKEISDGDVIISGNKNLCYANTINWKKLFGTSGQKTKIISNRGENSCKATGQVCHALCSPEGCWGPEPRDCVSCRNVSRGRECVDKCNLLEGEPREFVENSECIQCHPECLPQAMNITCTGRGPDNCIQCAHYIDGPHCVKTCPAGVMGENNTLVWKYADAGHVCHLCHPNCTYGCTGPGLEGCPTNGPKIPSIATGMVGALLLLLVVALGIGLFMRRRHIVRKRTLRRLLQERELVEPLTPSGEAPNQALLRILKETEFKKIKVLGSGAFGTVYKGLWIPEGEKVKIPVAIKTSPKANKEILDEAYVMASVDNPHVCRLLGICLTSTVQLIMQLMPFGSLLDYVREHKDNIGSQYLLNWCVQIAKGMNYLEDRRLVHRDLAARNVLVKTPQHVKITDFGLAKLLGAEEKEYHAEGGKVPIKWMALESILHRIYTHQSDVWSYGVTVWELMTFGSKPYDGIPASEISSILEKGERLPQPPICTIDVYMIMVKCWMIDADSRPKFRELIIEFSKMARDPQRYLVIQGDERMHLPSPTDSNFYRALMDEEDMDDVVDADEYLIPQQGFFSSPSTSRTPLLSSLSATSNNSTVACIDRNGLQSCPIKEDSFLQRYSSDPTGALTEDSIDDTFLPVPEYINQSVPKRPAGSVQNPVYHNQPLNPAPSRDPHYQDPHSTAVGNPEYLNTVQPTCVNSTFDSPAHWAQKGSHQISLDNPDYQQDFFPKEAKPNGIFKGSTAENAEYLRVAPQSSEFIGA
Sequence of EGFR L858R/C797S (P00533 25-1210 C797S/L858R): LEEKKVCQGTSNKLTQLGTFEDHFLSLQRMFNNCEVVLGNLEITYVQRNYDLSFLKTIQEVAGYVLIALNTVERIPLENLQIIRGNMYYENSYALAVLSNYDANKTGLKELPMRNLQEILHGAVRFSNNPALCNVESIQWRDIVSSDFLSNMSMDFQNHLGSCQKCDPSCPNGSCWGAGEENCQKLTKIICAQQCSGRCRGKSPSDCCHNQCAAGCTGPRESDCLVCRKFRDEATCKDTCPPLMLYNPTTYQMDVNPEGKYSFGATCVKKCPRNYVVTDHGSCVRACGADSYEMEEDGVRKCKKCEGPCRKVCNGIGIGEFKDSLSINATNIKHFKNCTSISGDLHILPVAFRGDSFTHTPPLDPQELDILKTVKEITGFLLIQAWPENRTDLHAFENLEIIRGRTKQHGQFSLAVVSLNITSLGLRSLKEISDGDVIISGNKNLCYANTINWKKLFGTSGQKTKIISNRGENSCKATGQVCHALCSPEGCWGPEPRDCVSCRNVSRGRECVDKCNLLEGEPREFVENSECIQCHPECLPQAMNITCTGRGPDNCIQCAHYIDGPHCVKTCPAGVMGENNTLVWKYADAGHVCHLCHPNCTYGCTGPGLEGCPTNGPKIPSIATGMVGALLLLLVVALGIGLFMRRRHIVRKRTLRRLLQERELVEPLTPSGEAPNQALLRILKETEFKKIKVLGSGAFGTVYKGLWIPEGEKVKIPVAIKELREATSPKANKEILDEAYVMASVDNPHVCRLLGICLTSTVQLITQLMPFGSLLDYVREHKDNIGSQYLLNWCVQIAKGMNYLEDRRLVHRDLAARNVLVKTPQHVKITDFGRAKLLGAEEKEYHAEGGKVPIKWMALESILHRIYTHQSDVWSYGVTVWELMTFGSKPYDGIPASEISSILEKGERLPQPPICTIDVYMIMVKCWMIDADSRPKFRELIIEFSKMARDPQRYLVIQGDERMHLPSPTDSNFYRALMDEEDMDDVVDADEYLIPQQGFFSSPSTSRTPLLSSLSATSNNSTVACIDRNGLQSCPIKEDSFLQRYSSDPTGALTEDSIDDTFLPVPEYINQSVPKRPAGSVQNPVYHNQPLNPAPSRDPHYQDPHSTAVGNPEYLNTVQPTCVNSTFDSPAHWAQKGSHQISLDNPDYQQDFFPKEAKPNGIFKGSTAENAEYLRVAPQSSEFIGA

IC50 (EGFR Del19/T790M/C797S; [1]) [nM] | IC50 (EGFR Del19/T790M/C797S; [2]) [nM] | IC50 (EGFR L858R/T790M/C797S; [3]) [nM] | IC50 (EGFR L858R/T790M/C797S; [4]) [nM] | IC50 (EGFR Del19/C797S; [5]) [nM] | IC50 (EGFR Del19/C797S; [6]) [nM] | IC50 (EGFR L858R/C797S; [7]) [nM] | IC50 (EGFR wildtype (WT); IC50 WT (nM), 100 μM ATP) [nM] | IC50 (EGFR wildtype (WT); [9]) [nM] | SMILES | further results
1.3 | 1.3 | 2.9 | 0.8 | 4 | 3.2 | 11.3 | 7550 | 12 | COC1CCN(c2cc(Nc3ccnc(-c4cnn(S(=O)(=O)C5CC5)c4)n3)ncc2C#Cc2cnn(C3CCN(C(C)=O)CC3)c2)CC1 [Example 113, 1-(4-(4-((6-((2-(1-(Cyclopropylsulfonyl)-1H-pyrazol-4-yl)pyrimidin-4-yl)amino)-4-(4-methoxypiperidin-1-yl)pyridin-3-yl)ethynyl)-1H-pyrazol-1-yl)piperidin-1-yl)ethan-1-one] | IC50 (EGFR L858R/C797S; [8]): 2.6 nM
 | 6.1 |  | 13.2 |  | 138 |  |  | 2580 | CC(C)Oc1cc(Nc2ccnc(-c3cnn(S(=O)(=O)C4CC4)c3)n2)ncc1C#Cc1cnn(C)c1 [Example 54, 2-(1-(Cyclopropylsulfonyl)-1H-pyrazol-4-yl)-N-(4-isopropoxy-5-((1-methyl-1H-pyrazol-4-yl)ethynyl)pyridin-2-yl)pyrimidin-4-amine] | 
 | 0.8 |  | 1.8 |  | 34.3 |  |  | 374 | CC(C)Nc1cc(Nc2ccnc(-c3cnn(S(=O)(=O)C4CC4)c3)n2)ncc1C#Cc1cccnc1 [Example 21, N^2-(2-(1-(Cyclopropylsulfonyl)-1H-pyrazol-4-yl)pyrimidin-4-yl)-N^4-isopropyl-5-(pyridin-3-ylethynyl)pyridine-2,4-diamine] | 
 | 7 |  | 19.1 |  | 398 |  |  | 2630 | CC(C)Oc1cc(Nc2ccnc(-c3cnn(S(=O)(=O)C4CC4)c3)n2)ncc1C#Cc1cnn(CCF)c1 [Example 55, 2-(1-(Cyclopropylsulfonyl)-1H-pyrazol-4-yl)-N-(5-((1-(2-fluoroethyl)-1H-pyrazol-4-yl)ethynyl)-4-isopropoxypyridin-2-yl)pyrimidin-4-amine] | 

Second part, the molecule before the results:

SMILES | IC50 (EGFR Del19/T790M/C797S; [1]) [nM] | IC50 (EGFR Del19/T790M/C797S; [2]) [nM] | IC50 (EGFR L858R/T790M/C797S; [3]) [nM] | IC50 (EGFR L858R/T790M/C797S; [4]) [nM] | IC50 (EGFR Del19/C797S; [5]) [nM] | IC50 (EGFR Del19/C797S; [6]) [nM] | IC50 (EGFR L858R/C797S; [7]) [nM] | IC50 (EGFR wildtype (WT); IC50 WT (nM), 100 μM ATP) [nM] | IC50 (EGFR wildtype (WT); [9]) [nM] | further results
CN(C)CCn1cc(C#Cc2cnc(Nc3ccnc(-c4cnn(S(=O)(=O)C5CC5)c4)n3)cc2N2CCC(NCCF)CC2)cn1 [Example 144, 2-(1-(Cyclopropylsulfonyl)-1H-pyrazol-4-yl)-N-(5-((1-(2-(dimethylamino)ethyl)-1H-pyrazol-4-yl)ethynyl)-4-(4-((2-fluoroethyl)amino)piperidin-1-yl)pyridin-2-yl)pyrimidin-4-amine] | 0.3 | 0.3 | 0.4 | 0.1 | 0.9 | 0.8 | 34.3 | > 10000 | 23.8 | IC50 (EGFR L858R/C797S; [8]): 0.8 nM
O=S(=O)(C1CC1)n1cc(-c2nccc(Nc3cc(NC4CCC(O)CC4)c(C#CC4CCCO4)cn3)n2)cn1 (centres unmarked) [Example 376, (1s,4s)-4-((2-((2-(1-(Cyclopropylsulfonyl)-1H-pyrazol-4-yl)pyrimidin-4-yl)amino)-5-((tetrahydrofuran-2-yl)ethynyl)pyridin-4-yl)amino)cyclohexan-1-ol] | 0.5 |  | 1.1 |  | 2.5 |  | 102 | > 10000 |  | IC50 (EGFR Del19/T790M/C797S; Km ATP, read-out: IC50 Del19/T790M/C797S (nM), Km ATP): 0.3 nM; IC50 (EGFR L858R/T790M/C797S; Km ATP, read-out: IC50 L858R/T790M/C797S (nM), Km ATP): 3.4 nM; IC50 (EGFR Del19/C797S; Km ATP, read-out: IC50 Del19/C797S (nM), Km ATP): 1.4 nM; IC50 (EGFR L858R/C797S; Km ATP, read-out: IC50 L858R/C797S (nM), Km ATP): 7.8 nM; IC50 (EGFR wildtype (WT); Km ATP, read-out: IC50 WT (nM), Km ATP): 15.1 nM
CC(C)Nc1cc(Nc2ccnc(-c3cnn(S(=O)(=O)C4CC4)c3)n2)ncc1C#CCN1CCOCC1 [Example 202, N^2-(2-(1-(Cyclopropylsulfonyl)-1H-pyrazol-4-yl)pyrimidin-4-yl)-N^4-isopropyl-5-(3-morpholinoprop-1-yn-1-yl)pyridine-2,4-diamine] |  |  |  |  |  |  |  |  |  | IC50 (EGFR Del19/T790M/C797S; [10]): 2.2 nM; IC50 (EGFR L858R/T790M/C797S; [11]): 1.6 nM; IC50 (EGFR Del19/C797S; [12]): 43.4 nM; IC50 (EGFR L858R/C797S; [13]): 92.7 nM; IC50 (EGFR wildtype (WT); [14]): 312 nM
O=S(=O)(C1CC1)n1cc(-c2nccc(Nc3cc(N4CCC(CO)C4)c(C#Cc4cnn(CCF)c4)cn3)n2)cn1 (centres unmarked) [Example 34, (1-(2-((2-(1-(Cyclopropylsulfonyl)-1H-pyrazol-4-yl)pyrimidin-4-yl)amino)-5-((1-(2-fluoroethyl)-1H-pyrazol-4-yl)ethynyl)pyridin-4-yl)pyrrolidin-3-yl)methanol] | 1.8 | 2.1 | 6.8 |  | 11.5 |  | 236 | > 10000 | 27.9 | 
Cc1nc(C#Cc2cnc(Nc3ccnc(-c4cnn(S(=O)(=O)C5CC5)c4)n3)cc2NC(C)C)cs1 [Example 199, N^2-(2-(1-(Cyclopropylsulfonyl)-1H-pyrazol-4-yl)pyrimidin-4-yl)-N^4-isopropyl-5-((2-methylthiazol-4-yl)ethynyl)pyridine-2,4-diamine] |  |  |  |  |  |  |  |  |  | IC50 (EGFR Del19/T790M/C797S; [10]): 5.7 nM; IC50 (EGFR L858R/T790M/C797S; [11]): 3.4 nM; IC50 (EGFR Del19/C797S; [12]): 82 nM; IC50 (EGFR L858R/C797S; [13]): 414 nM
CC(C)Nc1cc(Nc2ccnc(-c3cnn(S(=O)(=O)C4CC4)c3)n2)ncc1C#CCCCNC(=O)N1CCOCC1 [Example 207, N-(5-(6-((2-(1-(Cyclopropylsulfonyl)-1H-pyrazol-4-yl)pyrimidin-4-yl)amino)-4-(isopropylamino)pyridin-3-yl)pent-4-yn-1-yl)morpholine-4-carboxamide] | 2.9 |  |  |  | 76.4 |  | 120 | > 10000 |  | IC50 (EGFR Del19/T790M/C797S; [10]): 2.1 nM; IC50 (EGFR Del19/C797S; [12]): 29.1 nM; IC50 (EGFR wildtype (WT); [14]): 56 nM
CCC(C)Nc1cc(Nc2ccnc(-c3cnn(S(=O)(=O)C4CC4)c3)n2)ncc1C#Cc1cnn(CCF)c1 (centres unmarked) [Example 26, N^4-(sec-Butyl)-N^2-(2-(1-(cyclopropylsulfonyl)-1H-pyrazol-4-yl)pyrimidin-4-yl)-5-((1-(2-fluoroethyl)-1H-pyrazol-4-yl)ethynyl)pyridine-2,4-diamine] |  | 3.1 |  | 3.6 |  | 58.1 |  |  | 545 | 
CCC(C)Nc1cc(Nc2ccnc(-c3cnn(S(=O)(=O)C4CC4)c3)n2)ncc1C#Cc1cnn(C(C)C)c1 (centres unmarked) [Example 25, N^4-(sec-Butyl)-N^2-(2-(1-(cyclopropylsulfonyl)-1H-pyrazol-4-yl)pyrimidin-4-yl)-5-((1-isopropyl-1H-pyrazol-4-yl)ethynyl)pyridine-2,4-diamine] |  | 6.9 |  | 6.5 |  | 105 |  |  | 915 | 
CC(C)Nc1cc(Nc2ccnc(-c3cnn(S(=O)(=O)C4CC4)c3)n2)ncc1C#Cc1cnn(C)c1 [Example 18, N^2-(2-(1-(Cyclopropylsulfonyl)-1H-pyrazol-4-yl)pyrimidin-4-yl)-N^4-isopropyl-5-((1-methyl-1H-pyrazol-4-yl)ethynyl)pyridine-2,4-diamine] | 1.6 | 2.2 | 1.1 | 3.3 | 47.3 | 35.5 |  | > 10000 | 213 | 
CCC(C)Nc1cc(Nc2ccnc(-c3cnn(S(=O)(=O)C4CC4)c3)n2)ncc1C#Cc1cnn(C)c1 (centres unmarked) [Example 24, N^4-(sec-Butyl)-N^2-(2-(1-(cyclopropylsulfonyl)-1H-pyrazol-4-yl)pyrimidin-4-yl)-5-((1-methyl-1H-pyrazol-4-yl)ethynyl)pyridine-2,4-diamine] |  | 2.7 |  | 4.4 |  | 32.9 |  |  | 462 | 
CC(C)Nc1cc(Nc2ccnc(-c3cnn(S(=O)(=O)C4CC4)c3)n2)ncc1C#CCCCCC(=O)N1CCOCC1 [Example 210, 7-(6-((2-(1-(Cyclopropylsulfonyl)-1H-pyrazol-4-yl)pyrimidin-4-yl)amino)-4-(isopropylamino)pyridin-3-yl)-1-morpholinohept-6-yn-1-one] | 3.4 |  |  |  | 143 |  | 157 | > 10000 |  | 
